According to the NIST ThermoML archive (doi:10.1016/j.fluid.2010.02.020):
Where “and” joins values, the source holds several entries; their conditions need not be identical. Equal entries are not always repeated.

Conditions: for mass density: 101.33 kPa, Liquid, Vibrating tube method; for surface tension liquid-gas: Pendant drop shape

CCCCCCCn1cc[n+](C)c1.O=S(=O)([N-]S(=O)(=O)C(F)(F)F)C(F)(F)F
Conditions	mass density [kg/m3]
293.15 K	1349.5
303.15 K	1340.4
313.15 K	1331.5
323.15 K	1322.6
333.15 K	1313.8
343.15 K	1305
353.15 K	1296.3
363.15 K	1287.6
373.15 K	1278.9
383.15 K	1270.1
393.15 K	1261.4
403.15 K	1252.6
413.15 K	1243.8
423.15 K	1235
433.15 K	1226.1
443.15 K	1217
453.15 K	1208
463.15 K	1198.7
473.15 K	1189.4

CCCCCCCCCCn1cc[n+](C)c1.O=S(=O)([N-]S(=O)(=O)C(F)(F)F)C(F)(F)F
Conditions	mass density [kg/m3]	surface tension liquid-gas
293.15 K	1284.9	–
303.15 K	1276	–
313.15 K	1267.4	–
313.2 K	–	28.7 mN/m
313.3 K	–	29.1 mN/m
314.1 K	–	27.7 mN/m
323.15 K	1258.8	–
333 K	–	26.7 mN/m
333.15 K	1250.3	–
333.3 K	–	27 mN/m
333.6 K	–	28.1 mN/m
343.15 K	1241.8	–
352.7 K	–	27 mN/m
353.15 K	1233.5	–
353.2 K	–	25.4 mN/m
353.3 K	–	25.3 mN/m
363.15 K	1225.1	–
372.6 K	–	26.3 mN/m
373.15 K	1216.7	–
373.3 K	–	24.3 mN/m
373.4 K	–	24.5 mN/m
383.15 K	1208.4	–
392.4 K	–	24.9 mN/m and 24.6 mN/m
393.15 K	1200	–
393.3 K	–	23.5 mN/m
403.15 K	1191.7	–
412.3 K	–	23.5 mN/m
412.5 K	–	23.6 mN/m
413.15 K	1183.3	–
413.5 K	–	22.4 mN/m
423.15 K	1174.8	–
432.2 K	–	22.9 mN/m
433 K	–	22.2 mN/m
433.15 K	1166.4	–
433.3 K	–	21.5 mN/m
443.15 K	1157.8	–
452.8 K	–	22.2 mN/m
452.9 K	–	21.2 mN/m
453.15 K	1148.9	–
453.2 K	–	20.4 mN/m
463.15 K	1140.2	–
472.7 K	–	21.1 mN/m
472.8 K	–	19.1 mN/m
473.15 K	1131.4	–
473.3 K	–	19.3 mN/m
492.5 K	–	20.1 mN/m
493.1 K	–	18.5 mN/m
513.8 K	–	17.5 mN/m
533.2 K	–	16.9 mN/m

CCCCCn1cc[n+](C)c1.O=S(=O)([N-]S(=O)(=O)C(F)(F)F)C(F)(F)F
Conditions	mass density [kg/m3]	surface tension liquid-gas
293.15 K	1408.1	–
303.15 K	1398.7	–
312.7 K	–	29.5 mN/m
313.15 K	1389.4	–
313.2 K	–	30.5 mN/m
323.15 K	1380.3	–
333.15 K	1371.2	–
333.2 K	–	28.3 mN/m
343.15 K	1362.1	–
353.15 K	1353.1	–
353.4 K	–	27.3 mN/m
353.7 K	–	27.2 mN/m
363.15 K	1344	–
373.15 K	1335	–
373.5 K	–	26.3 mN/m
373.7 K	–	26.6 mN/m
383.15 K	1325.9	–
393.15 K	1316.8	–
393.7 K	–	24.7 mN/m and 25.6 mN/m
403.15 K	1307.6	–
413.15 K	1298.4	–
413.6 K	–	24.6 mN/m
413.8 K	–	23.5 mN/m
423.15 K	1288.6	–
433.15 K	1279.7	–
433.5 K	–	22.6 mN/m
433.7 K	–	23.7 mN/m
443.15 K	1270.3	–
453.15 K	1260.8	–
453.5 K	–	21.7 mN/m
453.6 K	–	22.8 mN/m
463.15 K	1251.1	–
473.15 K	1241.3	–
473.3 K	–	21.1 mN/m
473.6 K	–	21.7 mN/m
493 K	–	21.6 mN/m
493.2 K	–	20.8 mN/m
512.9 K	–	20.1 mN/m
